Values after ≈ are worked out from the molar mass of the structure shown. Like-named read-outs stand apart in the source and are kept apart here.
Assays:
[1] = test system: K. pneumoniae MXX1232; experiment: Antibacterial activity, MIC, resistant strain (Table 4); format: cell-based; settings: Klebsiella pneumoniae
Outline: (§1)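 Values are MICs in μg/mL, read as the lowest compound concentration at which no growth is visible by eye. They come from a microbroth dilution method.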

[2] = test system: A. baumannii MXX2240; experiment: as above; format: cell-based; settings: Acinetobacter baumannii
Outline: as §1

[3] = test system: E. coli LZ3111; experiment: Antibacterial activity, MIC, quinolone resistant strain (Table 2); format: cell-based; settings: Escherichia coli, LZ3111, read-out: MIC LZ3111
Outline: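 MIC values (μg/mL) came from a microbroth dilution assay, scored as the lowest drug concentration at which no growth was visible by eye.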

[4] = test system: Acinetobacter baumannii (A. baumannii) BAA747; experiment: Antibacterial activity, MIC (Table 4); format: cell-based
Outline: as §1

[5] = test system: Klebsiella pneumoniae (K. pneumoniae) 35657; experiment: Antibacterial activity, MIC (Table 4); format: cell-based
Outline: as §1

[6] = test system: Staphylococcus aureus (S. aureus) 29213; experiment: Antibacterial activity, microbroth dilution MIC (Table 1); format: cell-based
Outline: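 Potency is reported as minimum inhibitory concentration in μg/mL, determined by broth microdilution as the lowest level of compound that stops growth visible to the eye.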

[7] = test system: Escherichia coli (E. coli) BAS849; experiment: as above; format: cell-based
Outline: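 Growth inhibition by microbroth dilution. MIC = lowest μg/mL with no visible growth. Strain 25922 is the control Gram-negative; BAS849 is hypersensitive.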

[8] = test system: Pseudomonas aeruginosa (P. aeruginosa) 27853; experiment: Antibacterial activity, MIC (Table 5); format: cell-based
Outline: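 Values are MICs in μg/mL, read as the lowest concentration at which no growth is visible by eye. They were determined by a microbroth dilution method.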

[9] = test system: E. coli 25922; experiment: Antibacterial activity, microbroth dilution MIC (Table 1); format: cell-based, Escherichia coli
Outline: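 Values are MICs (μg/mL): the smallest drug amount at which macroscopically visible bacterial growth is absent under assay conditions, from a microdilution method in broth.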

[10] = MXX1232, resistant K. pneumoniae MMX1232, multi-drug resistant clinical isolate, read-out: MIC, MMX1232
[11] = MXX2240, resistant A. baumannii MMX2240, multi-drug resistant clinical isolate, read-out: MIC, MMX2240
[12] = A. baumannii BAA747, read-out: MIC, BAA747
[13] = K. pneumoniae 35657, read-out: MIC, 35657
[14] = microbroth dilution, Gram-positive S. aureus 29213, read-out: MIC, 29213
[15] = microbroth dilution, super sensitive Gram-negative E. coli BAS849, read-out: MIC, BAS849
[16] = P. aeruginosa 27853, read-out: MIC, 27853
[17] = Escherichia coli, microbroth dilution, control Gram-negative E. coli 25922 strain, read-out: MIC, 25922
[18] = MXX1232, read-out: MIC, MMX1232
[19] = MXX2240, read-out: MIC, MMX2240
[20] = Escherichia coli, 25922, read-out: MIC, 25922

CCNCc1cc2ccc(-c3[nH]c(=O)c(C(=O)O)c(O)c3CC)cc2[nH]1.Cl [Cpd 442, 5-ethyl-6-(2-((ethylamino)methyl)-1H-indol-6-yl)-4-hydroxy-2-oxo-1,2-dihydropyridine-3-carboxylic acid hydrochloride]
MIC [1, 10]: 12.5 to 150 µg/mL
MIC [2, 11]: 12.5 to 150 µg/mL
MIC [3]: 12.5 to 150 µg/mL
MIC [4, 12]: 12.5 to 150 µg/mL
MIC [5, 13]: 3.5 to 12.5 µg/mL
MIC [6, 14]: 12.5 to 150 µg/mL
MIC [7, 15]: 1 to 3.5 µg/mL
MIC [8, 16]: 12.5 to 150 µg/mL
MIC [9, 17]: 3.5 to 12.5 µg/mL

CCc1c(-c2ccc3cc(CNC(C)CC)[nH]c3c2)[nH]c(=O)c(C(=O)O)c1O.Cl (stereo not drawn) [Cpd 443, 6-(2-((sec-butylamino)methyl)-1H-indol-6-yl)-5-ethyl-4-hydroxy-2-oxo-1,2-dihydropyridine-3-carboxylic acid hydrochloride]
MIC [1, 10]: 12.5 to 150 µg/mL
MIC [2, 11]: 3.5 to 12.5 µg/mL
MIC [3]: 3.5 to 12.5 µg/mL
MIC [4, 12]: 12.5 to 150 µg/mL
MIC [5, 13]: 3.5 to 12.5 µg/mL
MIC [6, 14]: 3.5 to 12.5 µg/mL
MIC [7, 15]: 1 to 3.5 µg/mL
MIC [8, 16]: 12.5 to 150 µg/mL
MIC [9, 17]: 3.5 to 12.5 µg/mL

CCNCc1cc2ccc(-c3[nH]c(=O)c(C(=O)O)c(O)c3C)cc2[nH]1.Cl [Cpd 444, 6-(2-((ethylamino)methyl)-1H-indol-6-yl)-4-hydroxy-5-methyl-2-oxo-1,2-dihydropyridine-3-carboxylic acid hydrochloride]
MIC [1, 10]: 12.5 to 150 µg/mL
MIC [2, 11]: 12.5 to 150 µg/mL
MIC [3]: 12.5 to 150 µg/mL
MIC [4, 12]: 12.5 to 150 µg/mL
MIC [5, 13]: 12.5 to 150 µg/mL
MIC [6, 14]: 12.5 to 150 µg/mL
MIC [7, 15]: 12.5 to 150 µg/mL
MIC [8, 16]: 12.5 to 150 µg/mL
MIC [9, 17]: 12.5 to 150 µg/mL

CCc1c(-c2ccc3c4c([nH]c3c2)CNCC4)[nH]c(=O)c(C(=O)O)c1O [Cpd 445, 5-ethyl-4-hydroxy-2-oxo-6-(2,3,4,9-tetrahydro-1H-pyrido[3,4-b]indol-7-yl)-1,2-dihydropyridine-3-carboxylic acid]
MIC [1, 10]: 12.5 to 150 µg/mL (≈ 35.4 to 424 µM)
MIC [2, 11]: 12.5 to 150 µg/mL (≈ 35.4 to 424 µM)
MIC [3]: 12.5 to 150 µg/mL (≈ 35.4 to 424 µM)
MIC [4, 12]: 12.5 to 150 µg/mL (≈ 35.4 to 424 µM)
MIC [5, 13]: 3.5 to 12.5 µg/mL (≈ 9.9 to 35.4 µM)
MIC [6, 14]: 12.5 to 150 µg/mL (≈ 35.4 to 424 µM)
MIC [7, 15]: 3.5 to 12.5 µg/mL (≈ 9.9 to 35.4 µM)
MIC [8, 16]: 12.5 to 150 µg/mL (≈ 35.4 to 424 µM)
MIC [9, 17]: 12.5 to 150 µg/mL (≈ 35.4 to 424 µM)

CCc1c(-c2ccc3c4c([nH]c3c2)CN(C)CC4)[nH]c(=O)c(C(=O)O)c1O [Cpd 446, 5-ethyl-4-(hydroxy)-6-(2-methyl-2,3,4,9-tetrahydro-1H-pyrido[3,4-b]indol-7-yl)-2-oxo-1,2-dihydropyridine-3-carboxylic acid]
MIC [1, 18]: 12.5 to 150 µg/mL (≈ 34 to 408 µM)
MIC [2, 19]: 12.5 to 150 µg/mL (≈ 34 to 408 µM)
MIC [3]: 1 to 3.5 µg/mL (≈ 2.72 to 9.53 µM)
MIC ([4]; BAA747, read-out: MIC, BAA747): 3.5 to 12.5 µg/mL (≈ 9.53 to 34 µM)
MIC ([5]; read-out: MIC, 35657): < 1 µg/mL
MIC ([6]; read-out: MIC, 29213): 12.5 to 150 µg/mL (≈ 34 to 408 µM)
MIC ([7]; read-out: MIC, BAS849): < 1 µg/mL
MIC ([8]; read-out: MIC, 27853): 3.5 to 12.5 µg/mL (≈ 9.53 to 34 µM)
MIC [9, 20]: 1 to 3.5 µg/mL (≈ 2.72 to 9.53 µM)

CCc1c(-c2ccc3c4c([nH]c3c2)CN(CC)CC4)[nH]c(=O)c(C(=O)O)c1O [Cpd 447, 5-ethyl-6-(2-ethyl-2,3,4,9-tetrahydro-1H-pyrido[3,4-b]indol-7-yl)-4-hydroxy-2-oxo-1,2-dihydropyridine-3-carboxylic acid]
MIC [1, 18]: 12.5 to 150 µg/mL (≈ 32.8 to 393 µM)
MIC [2, 19]: 12.5 to 150 µg/mL (≈ 32.8 to 393 µM)
MIC [3]: 3.5 to 12.5 µg/mL (≈ 9.18 to 32.8 µM)
MIC ([4]; BAA747, read-out: MIC, BAA747): 3.5 to 12.5 µg/mL (≈ 9.18 to 32.8 µM)
MIC ([5]; read-out: MIC, 35657): < 1 µg/mL
MIC ([6]; read-out: MIC, 29213): 12.5 to 150 µg/mL (≈ 32.8 to 393 µM)
MIC ([7]; read-out: MIC, BAS849): < 1 µg/mL
MIC ([8]; read-out: MIC, 27853): 12.5 to 150 µg/mL (≈ 32.8 to 393 µM)
MIC [9, 20]: < 1 µg/mL

CCCN1CCc2c([nH]c3cc(-c4[nH]c(=O)c(C(=O)O)c(O)c4CC)ccc23)C1 [Cpd 448, 5-ethyl-4-hydroxy-2-oxo-6-(2-propyl-2,3,4,9-tetrahydro-1H-pyrido[3,4-b]indol-7-yl)-1,2-dihydropyridine-3-carboxylic acid]
MIC [1, 18]: 12.5 to 150 µg/mL (≈ 31.6 to 379 µM)
MIC [2, 19]: 3.5 to 12.5 µg/mL (≈ 8.85 to 31.6 µM)
MIC [3]: 3.5 to 12.5 µg/mL (≈ 8.85 to 31.6 µM)
MIC ([4]; BAA747, read-out: MIC, BAA747): 3.5 to 12.5 µg/mL (≈ 8.85 to 31.6 µM)
MIC ([5]; read-out: MIC, 35657): 1 to 3.5 µg/mL (≈ 2.53 to 8.85 µM)
MIC ([6]; read-out: MIC, 29213): 12.5 to 150 µg/mL (≈ 31.6 to 379 µM)
MIC ([7]; read-out: MIC, BAS849): < 1 µg/mL
MIC ([8]; read-out: MIC, 27853): 12.5 to 150 µg/mL (≈ 31.6 to 379 µM)
MIC [9, 20]: < 1 µg/mL

CCc1c(-c2ccc3c4c([nH]c3c2)CN(C(C)C)CC4)[nH]c(=O)c(C(=O)O)c1O [Cpd 449, 5-ethyl-4-hydroxy-6-(2-isopropyl-2,3,4,9-tetrahydro-1H-pyrido[3,4-b]indol-7-yl)-2-oxo-1,2-dihydropyridine-3-carboxylic acid]
MIC [1, 10]: 12.5 to 150 µg/mL (≈ 31.6 to 379 µM)
MIC [2, 11]: 3.5 to 12.5 µg/mL (≈ 8.85 to 31.6 µM)
MIC [3]: 3.5 to 12.5 µg/mL (≈ 8.85 to 31.6 µM)
MIC [4, 12]: 3.5 to 12.5 µg/mL (≈ 8.85 to 31.6 µM)
MIC [5, 13]: < 1 µg/mL
MIC [6, 14]: 12.5 to 150 µg/mL (≈ 31.6 to 379 µM)
MIC [7, 15]: < 1 µg/mL
MIC [8, 16]: 12.5 to 150 µg/mL (≈ 31.6 to 379 µM)
MIC [9, 17]: < 1 µg/mL

CCc1c(-c2ccc3c4c([nH]c3c2)CCNC4)[nH]c(=O)c(C(=O)O)c1O [Cpd 450, 5-ethyl-4-hydroxy-2-oxo-6-(2,3,4,5-tetrahydro-1H-pyrido[4,3-b]indol-7-yl)-1,2-dihydropyridine-3-carboxylic acid]
MIC [1, 10]: 12.5 to 150 µg/mL (≈ 35.4 to 424 µM)
MIC [2, 11]: 12.5 to 150 µg/mL (≈ 35.4 to 424 µM)
MIC [3]: 12.5 to 150 µg/mL (≈ 35.4 to 424 µM)
MIC [4, 12]: 12.5 to 150 µg/mL (≈ 35.4 to 424 µM)
MIC [5, 13]: 3.5 to 12.5 µg/mL (≈ 9.9 to 35.4 µM)
MIC [6, 14]: 12.5 to 150 µg/mL (≈ 35.4 to 424 µM)
MIC [7, 15]: 3.5 to 12.5 µg/mL (≈ 9.9 to 35.4 µM)
MIC [8, 16]: 12.5 to 150 µg/mL (≈ 35.4 to 424 µM)
MIC [9, 17]: 12.5 to 150 µg/mL (≈ 35.4 to 424 µM)

Source: US9409905B2, “Antibacterial compounds and methods for use” (PTC THERAPEUTICS, INC., priority 2011, dated 2016)
